The results in this text go back to US20210198277A1, “AMINE-SUBSTITUTED ARYL OR HETEROARYL COMPOUNDS” (Epizyme, Inc., priority 2016, published 2021).

Where a name gives a salt, the structure may show the parent alone.

The term IC50 denotes the concentration at which inhibition is half-maximal.

One assay deals with T1, human EHMT2 913-1193 (Homo sapiens, UniProt Q96KQ7).
T1 construct: recombinant purified human EHMT2 913-1193, Viva; purchased Viva
T1 sequence (Q96KQ7 913-1193): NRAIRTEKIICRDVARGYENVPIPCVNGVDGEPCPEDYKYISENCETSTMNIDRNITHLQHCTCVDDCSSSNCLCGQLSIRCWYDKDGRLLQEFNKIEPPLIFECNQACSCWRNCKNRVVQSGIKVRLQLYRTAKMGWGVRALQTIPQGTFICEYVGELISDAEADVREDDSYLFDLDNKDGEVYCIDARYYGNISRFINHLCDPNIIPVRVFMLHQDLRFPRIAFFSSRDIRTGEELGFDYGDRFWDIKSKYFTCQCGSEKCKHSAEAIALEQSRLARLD
Description: EHMT2 enzyme assay on histone peptide substrate (EHMT2 PEP). The conditions noted are these: Table II; read-out: EHMT2 PEP (IC50 μM). In kind it is biochemical. A digest of the protocol: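 Inhibition is measured as reduced tritium incorporation into a biotinylated histone peptide from ^3H-SAM. The enzyme (0.031 nM) sees compound for 30 minutes before a 60-minute room-temperature reaction, which unlabeled SAM quenches prior to streptavidin Flashplate capture.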

Another assay deals with T2, EHMT1 (Homo sapiens, UniProt Q9H9B1).
T2 sequence (Q9H9B1 1-1298): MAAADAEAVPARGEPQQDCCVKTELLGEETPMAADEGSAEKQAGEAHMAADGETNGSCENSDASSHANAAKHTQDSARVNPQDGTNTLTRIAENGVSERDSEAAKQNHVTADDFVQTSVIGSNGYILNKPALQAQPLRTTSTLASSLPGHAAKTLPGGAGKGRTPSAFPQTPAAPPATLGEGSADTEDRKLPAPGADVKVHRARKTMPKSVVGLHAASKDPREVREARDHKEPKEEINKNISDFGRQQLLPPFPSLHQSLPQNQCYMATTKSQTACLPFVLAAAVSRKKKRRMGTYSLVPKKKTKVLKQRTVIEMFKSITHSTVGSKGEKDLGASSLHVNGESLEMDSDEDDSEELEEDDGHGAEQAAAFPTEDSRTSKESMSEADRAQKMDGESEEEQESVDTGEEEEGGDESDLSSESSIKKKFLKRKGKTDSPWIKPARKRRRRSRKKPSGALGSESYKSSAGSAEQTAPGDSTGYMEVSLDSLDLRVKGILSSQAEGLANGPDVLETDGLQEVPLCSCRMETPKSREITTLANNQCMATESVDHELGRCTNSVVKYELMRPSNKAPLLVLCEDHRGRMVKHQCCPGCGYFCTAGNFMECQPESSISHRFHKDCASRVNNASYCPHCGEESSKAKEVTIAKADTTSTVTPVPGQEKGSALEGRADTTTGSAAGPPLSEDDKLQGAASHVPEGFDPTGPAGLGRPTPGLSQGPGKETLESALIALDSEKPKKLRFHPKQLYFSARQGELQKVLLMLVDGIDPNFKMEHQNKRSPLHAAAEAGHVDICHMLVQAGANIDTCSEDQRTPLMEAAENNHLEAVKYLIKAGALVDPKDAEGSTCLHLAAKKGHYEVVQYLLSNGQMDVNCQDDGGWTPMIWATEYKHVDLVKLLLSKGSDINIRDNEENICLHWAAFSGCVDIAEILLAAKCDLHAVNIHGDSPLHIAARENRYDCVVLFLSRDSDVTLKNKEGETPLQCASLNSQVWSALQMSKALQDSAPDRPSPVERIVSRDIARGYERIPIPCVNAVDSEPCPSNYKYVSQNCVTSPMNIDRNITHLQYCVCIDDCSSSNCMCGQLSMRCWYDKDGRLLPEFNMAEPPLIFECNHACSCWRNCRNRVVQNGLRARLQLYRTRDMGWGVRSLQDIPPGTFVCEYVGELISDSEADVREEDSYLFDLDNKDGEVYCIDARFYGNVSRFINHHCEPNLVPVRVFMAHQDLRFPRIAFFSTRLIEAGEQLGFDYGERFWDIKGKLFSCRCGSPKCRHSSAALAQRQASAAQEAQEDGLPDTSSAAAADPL
Briefly: EHMT1 enzyme assay on peptide substrate (EHMT1 PEP). As to conditions: Table II; read-out: EHMT1 PEP (IC50 μM). The class given is biochemical.

Turning to `COc1ccc(Nc2nccc(NCC3CCN(C(C)=O)CC3)n2)cc1OCCCNc1ccccc1` [Compound 160], the IC50 at human EHMT2 913-1193 and on EHMT1 was greater than 10 µM in each case.

Consider `CC(=O)N1CCC(CNc2ccnc(Nc3ccc(C)c(OCCCN4CCCC4)c3)n2)CC1` [Compound 145], for which the IC50 on human EHMT2 913-1193 and at EHMT1 was 1 to 10 µM in each case.

On to `COc1ccc(Nc2ncc(CO)cn2)cc1OCCCN1CCCC1` [Compound 181], for which the IC50 on human EHMT2 913-1193 and on EHMT1 was greater than 10 µM each time.

`COc1ccc(N(C)c2nccc(NCC3CCN(C(C)=O)CC3)n2)cc1OCCCN1CCCC1` [Compound 158]: the IC50 on human EHMT2 913-1193 and at EHMT1 was greater than 10 µM in each case.

As for `COc1ccc(Nc2nccc(N3CCN(c4ccccn4)CC3)n2)cc1OCCCN1CCCC1` [Compound 168], the IC50 on human EHMT2 913-1193 and on EHMT1 was greater than 10 µM throughout.

`COc1ccc(Nc2nccc(NCC3CCN(C(C)=O)CC3)n2)cc1OCCC(=O)N1CCCC1` [Compound 166]: the IC50 at human EHMT2 913-1193 and on EHMT1 was greater than 10 µM throughout.

Take `COc1ccc(Nc2nccc(N(C)CC3CCN(C(C)=O)CC3)n2)cc1OCCCN1CCCC1` [Compound 172]: the IC50 at human EHMT2 913-1193 and on EHMT1 was 1 to 10 µM throughout.

Turning to `COc1ccc(Nc2nccc(N3CCCN(C(C)=O)CC3)n2)cc1OCCCN1CCCC1` [Compound 138], the IC50 at human EHMT2 913-1193 is 1 to 10 µM; on EHMT1 it was greater than 10 µM.

On to `COc1cnc(Nc2ccnc(CNC3CCOCC3)c2)cc1OCCCN1CCCC1` [Compound 12, 5-methoxy-4-(3-(pyrrolidin-1-yl)propoxy)-N-(2-(((tetrahydro-2H-pyran-4-yl)amino)methyl)pyridin-4-yl)pyridin-2-amine], for which the IC50 at human EHMT2 913-1193 and at EHMT1 was 1 to 10 µM throughout.

On to `COc1ccc(Nc2nccc(NCC3CCOCC3)n2)cc1OCCN1CCOCC1` [Compound 204], for which the IC50 at human EHMT2 913-1193 and at EHMT1 was 1 to 10 µM throughout.

Consider `COc1ccc(Nc2nccc(-c3c(C)n[nH]c3C)n2)cc1OCCCN1CCCC1` [Compound 129], for which the IC50 at human EHMT2 913-1193 and at EHMT1 was greater than 10 µM throughout.

In the case of `COc1ccc(Nc2nccc(N3CCCNC(=O)C3)n2)cc1OCCCN1CCCC1` [Compound 133], the values for the IC50 at human EHMT2 913-1193 and on EHMT1 were 1 to 10 µM and greater than 10 µM, respectively.

For the compound `COc1ccc(Nc2nccc(N(C)C)n2)cc1OCCCN1CCCC1` [Compound 171], the IC50 on human EHMT2 913-1193 and on EHMT1 was 1 to 10 µM in each case.

`COCCN(C)c1ccnc(Nc2ccc(OC)c(OCCCN3CCCC3)c2)n1` [Compound 177]: the IC50 on human EHMT2 913-1193 is 1 to 10 µM; on EHMT1, greater than 10 µM.

Consider `COc1ccc(Nc2nccc(N3CCC(OC)CC3)n2)cc1OCCCN1CCCC1` [Compound 149], for which the IC50 on human EHMT2 913-1193 and on EHMT1 was greater than 10 µM throughout.

As for `COc1ccc(Nc2nccc(N3CCC(O)CC3)n2)cc1OCCCN1CCCC1` [Compound 148], the IC50 at human EHMT2 913-1193 is 1 to 10 µM; on EHMT1, greater than 10 µM.

On to `COc1ccc(Nc2nccc(N3CCc4[nH]ncc4C3)n2)cc1OCCCN1CCCC1` [Compound 128], for which the IC50 on human EHMT2 913-1193 and on EHMT1 was greater than 10 µM in each case.

`COc1ccc(Nc2nccc(N3CCC(C)(O)CC3)n2)cc1OCCCN1CCCC1` [Compound 141]: the IC50 on human EHMT2 913-1193 and at EHMT1 was greater than 10 µM each time.

As to `COc1ccc(Nc2nccc(NCCc3ccccn3)n2)cc1OCCCN1CCCC1` [Compound 167], the IC50 on human EHMT2 913-1193 and on EHMT1 was 0.1 to 1 µM each time.

For the compound `COc1ccc(Nc2ccnc(NCC3CCNCC3)n2)cc1OCCCN1CCCC1` [Compound 7, 4-N-[4-methoxy-3-[3-(pyrrolidin-1-yl)propoxy]phenyl]-2-N-(piperidin-4-ylmethyl)pyrimidine-2,4-diamine hydrochloride], the IC50 on human EHMT2 913-1193 and on EHMT1 was less than 0.1 µM in each case.

Turning to `COc1ccc(Nc2nccc(N3CC(C(N)=O)C3)n2)cc1OCCCN1CCCC1` [Compound 179], the IC50 on human EHMT2 913-1193 and at EHMT1 was greater than 10 µM throughout.

Consider `COc1ccc(Nc2nccc(N3CCc4nc[nH]c(=O)c4C3)n2)cc1OCCCN1CCCC1` [Compound 134], for which the IC50 at human EHMT2 913-1193 and at EHMT1 was greater than 10 µM throughout.

Turning to `COc1ccc(Nc2nccc(NCc3ccc(=O)[nH]c3)n2)cc1OCCCN1CCCC1` [Compound 165], the IC50 at human EHMT2 913-1193 and at EHMT1 was 0.1 to 1 µM in each case.

Take `COCCCN(C)c1ccnc(Nc2ccc(OC)c(OCCCN3CCCC3)c2)n1` [Compound 143]: the IC50 at human EHMT2 913-1193 and on EHMT1 was 1 to 10 µM in each case.

As for `COc1ccc(Nc2nccc(NCc3ccc4nccn4c3)n2)cc1OCCCN1CCCC1` [Compound 191], the IC50 on human EHMT2 913-1193 and on EHMT1 was less than 0.1 µM each time.

For the compound `COc1ccc(Nc2nccc(NCC3CCN(C(C)=O)CC3)n2)cc1OCC(C)CN1CCCC1` (stereo not drawn) [Compound 183], the IC50 at human EHMT2 913-1193 and at EHMT1 was 1 to 10 µM each time.

Take `CC(=O)N1CCC(CNc2ccnc(Nc3ccc(Cl)c(OCCCN4CCCC4)c3)n2)CC1` [Compound 8, 1-(4-(((2-((4-chloro-3-(3-(pyrrolidin-1-yl)propoxy)phenyl)amino)pyrimidin-4-yl)amino)methyl)piperidin-1-yl)ethan-1-one]: the IC50 on human EHMT2 913-1193 and at EHMT1 was 0.1 to 1 µM each time.

For `COc1cnc(Nc2cc(NCC3CCN(C(C)=O)CC3)ccn2)cc1OCCCN1CCCC1` [Compound 182], the IC50 at human EHMT2 913-1193 and at EHMT1 was 0.1 to 1 µM throughout.

For `COc1ccc(Nc2cc(NCC3CCN(C(C)=O)CC3)cnn2)cc1OCCCN1CCCC1` [Compound 185], the IC50 at human EHMT2 913-1193 and on EHMT1 was 1 to 10 µM each time.

Turning to `COc1ccc(Nc2cc(CNC3CCNCC3)n(C)n2)cc1OCCCN1CCCC1` [Compound 126], the IC50 at human EHMT2 913-1193 and at EHMT1 was greater than 10 µM throughout.

As for `COc1ccc(Nc2nccc(N3CCC(C(C)(C)O)CC3)n2)cc1OCCCN1CCCC1` [Compound 147], the IC50 at human EHMT2 913-1193 and at EHMT1 was 1 to 10 µM throughout.

For `CCOC(=O)N1CCC(CNc2ccnc(Nc3ccc(OC)c(OCCCN4CCCC4)c3)n2)CC1` [Compound 203], the IC50 at human EHMT2 913-1193 and on EHMT1 was 0.1 to 1 µM each time.

For `COc1ccc(Nc2nccc(N3CCc4cn[nH]c4C3)n2)cc1OCCCN1CCCC1` [Compound 155], the IC50 was 1 to 10 µM at human EHMT2 913-1193 and greater than 10 µM at EHMT1.

For the compound `COc1ccc(Nc2cc(N(C)CC3CCN(C(C)=O)CC3)ccn2)cc1OCCCN1CCCC1` [Compound 163], the IC50 on human EHMT2 913-1193 and on EHMT1 was greater than 10 µM throughout.

Consider `COc1ccc(Nc2nccc(-c3c[nH]nc3C)n2)cc1OCCCN1CCCC1` [Compound 131], for which the IC50 on human EHMT2 913-1193 and on EHMT1 was greater than 10 µM throughout.

For `COc1ccc(Nc2nccc(N3CCc4ncncc4C3)n2)cc1OCCCN1CCCC1` [Compound 156], the IC50 on human EHMT2 913-1193 and on EHMT1 was 1 to 10 µM each time.

For `CNc1cc(C)nc(Nc2ccc(OC)c(OCCCN3CC[C@@H](F)C3)c2)n1` [Compound 186], the IC50 on human EHMT2 913-1193 and at EHMT1 was 0.1 to 1 µM throughout.

For the compound `COc1ccc(Nc2nccc(OCC3CCN(C(C)=O)CC3)n2)cc1OCCCN1CCCC1` [Compound 14, 1-(4-(((2-((4-methoxy-3-(3-(pyrrolidin-1-yl)propoxy)phenyl)amino)pyrimidin-4-yl)oxy)methyl)piperidin-1-yl)ethan-1-one], the IC50 on human EHMT2 913-1193 and at EHMT1 was greater than 10 µM each time.

With `COc1ccc(Nc2nccc(N3CCN(C(C)=O)CC3)n2)cc1OCCCN1CCCC1` [Compound 139], the IC50 on human EHMT2 913-1193 and at EHMT1 was greater than 10 µM in each case.
